Assay results: patent US11040028B2, “Penicinotam derivative, preparation method and use thereof” (OCEAN UNIVERSITY OF CHINA, priority 2017, dated 2021)

test system: BHK-21 cells; experiment: Anti-fibrosis activity test: inhibition of BHK-21 cell proliferation (CCK-8); type: cell-based; conditions: Mesocricetus auratus, BHK-21, 48 h, CCK-8, 48 hours after administration
Summary of the method: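 Proliferation inhibition was read as CCK-8 absorbance at 450 nm (2-hour development) relative to untreated blank, with IC50 fitted from the curve. Before that, adhered cells (2×10^4 cells/mL, 24 hours) had 48 hours' treatment at several concentrations, in triplicate, at 37° C/5% CO2; pirfenidone was the reference.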

SMILES	IC50 [mM]
O=C1c2c([nH]c3cc(C(F)(F)F)ccc3c2=O)-c2cccn21 [Compound 536a, 6-(Trifluoromethyl)-9H-pyrrolizino[1,2-b]quinoline-9,10(4H)-dione]	0.05 to 5
O=C1c2c(nc3ccccc3c2OCCCCN2CCOCC2)-c2cccn21 [Compound 664b, 9-(4-morpholinobutoxy)-10H-pyrrolizino[1,2-b]quinolin-10-one]	0.05 to 5
O=C1c2c(nc3ccccc3c2OCCCO)-c2cccn21 [Compound 16b, 9-(3-hydroxypropoxy)-10H-pyrrolizino[1,2-b]quinolin-10-one]	0.05 to 5
O=C(O)COc1c2c(nc3ccccc13)-c1cccn1C2=O [Compound 100b, 2-((10-oxo-10H-pyrrolizino[1,2-b]quinolin-9-yl)oxy)acetic acid]	0.05 to 5
O=C1c2c(nc3ccccc3c2OCc2ccc(F)cc2Cl)-c2cccn21 [Compound 572b, 9-((2-chloro-4-fluorobenzyl)oxy)-10H-pyrrolizino[1,2-b]quinolin-10-one]	0.05 to 5

test system: human lung fibroblasts HFL1; experiment: Anti-fibrosis activity test: inhibition of proliferation of human lung fibroblasts HFL1 (CCK-8); type: cell-based; conditions: Homo sapiens, HFL1, 48 h, human lung fibroblasts HFL1, CCK-8, 48 hours
Summary of the method: (§1)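 Seed 2×10^4 cells/mL; adhere 24 h, 37° C/5% CO2. Compounds, serial concentrations, triplicate, 48 h. CCK-8 2 h, A450. IR=(1−Ai/Ao)×100% vs blank; IC50 fitted. Pirfenidone as positive control.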

SMILES	IC50 [mM]
O=C1c2c([nH]c3cc(C(F)(F)F)ccc3c2=O)-c2cccn21 [Compound 536a, 6-(Trifluoromethyl)-9H-pyrrolizino[1,2-b]quinoline-9,10(4H)-dione]	0.05 to 5
O=C1c2c(nc3ccccc3c2OCCCCN2CCOCC2)-c2cccn21 [Compound 664b, 9-(4-morpholinobutoxy)-10H-pyrrolizino[1,2-b]quinolin-10-one]	0.05 to 5
O=C1c2c(nc3ccccc3c2OCCCO)-c2cccn21 [Compound 16b, 9-(3-hydroxypropoxy)-10H-pyrrolizino[1,2-b]quinolin-10-one]	0.05 to 5
O=C(O)COc1c2c(nc3ccccc13)-c1cccn1C2=O [Compound 100b, 2-((10-oxo-10H-pyrrolizino[1,2-b]quinolin-9-yl)oxy)acetic acid]	0.05 to 5
O=C1c2c(nc3ccccc3c2OCc2ccc(F)cc2Cl)-c2cccn21 [Compound 572b, 9-((2-chloro-4-fluorobenzyl)oxy)-10H-pyrrolizino[1,2-b]quinolin-10-one]	0.05 to 5

test system: human hepatic stellate cells LX-2; experiment: Anti-fibrosis activity test: inhibition of proliferation of human hepatic stellate cells LX-2 (CCK-8); type: cell-based; conditions: Homo sapiens, 48 h, human hepatic stellate cells LX-2, CCK-8, 48 hours
Summary of the method: as §1

SMILES	IC50 [mM]
O=C1c2c([nH]c3cc(C(F)(F)F)ccc3c2=O)-c2cccn21 [Compound 536a, 6-(Trifluoromethyl)-9H-pyrrolizino[1,2-b]quinoline-9,10(4H)-dione]	0.05 to 5
O=C1c2c(nc3ccccc3c2OCCCCN2CCOCC2)-c2cccn21 [Compound 664b, 9-(4-morpholinobutoxy)-10H-pyrrolizino[1,2-b]quinolin-10-one]	0.05 to 5
O=C1c2c(nc3ccccc3c2OCCCO)-c2cccn21 [Compound 16b, 9-(3-hydroxypropoxy)-10H-pyrrolizino[1,2-b]quinolin-10-one]	0.05 to 5
O=C(O)COc1c2c(nc3ccccc13)-c1cccn1C2=O [Compound 100b, 2-((10-oxo-10H-pyrrolizino[1,2-b]quinolin-9-yl)oxy)acetic acid]	0.05 to 5
O=C1c2c(nc3ccccc3c2OCc2ccc(F)cc2Cl)-c2cccn21 [Compound 572b, 9-((2-chloro-4-fluorobenzyl)oxy)-10H-pyrrolizino[1,2-b]quinolin-10-one]	0.05 to 5

test system: human fibrosarcoma cells HT-1080; experiment: Anti-fibrosis activity test: inhibition of proliferation of human fibrosarcoma cells HT-1080 (CCK-8); type: cell-based; conditions: Homo sapiens, HT-1080, 48 h, human fibrosarcoma cells HT-1080, CCK-8, 48 hours
Summary of the method: as §1

SMILES	IC50 [mM]
O=C1c2c([nH]c3cc(C(F)(F)F)ccc3c2=O)-c2cccn21 [Compound 536a, 6-(Trifluoromethyl)-9H-pyrrolizino[1,2-b]quinoline-9,10(4H)-dione]	0.05 to 5
O=C1c2c(nc3ccccc3c2OCCCCN2CCOCC2)-c2cccn21 [Compound 664b, 9-(4-morpholinobutoxy)-10H-pyrrolizino[1,2-b]quinolin-10-one]	0.05 to 5
O=C1c2c(nc3ccccc3c2OCCCO)-c2cccn21 [Compound 16b, 9-(3-hydroxypropoxy)-10H-pyrrolizino[1,2-b]quinolin-10-one]	0.05 to 5
O=C(O)COc1c2c(nc3ccccc13)-c1cccn1C2=O [Compound 100b, 2-((10-oxo-10H-pyrrolizino[1,2-b]quinolin-9-yl)oxy)acetic acid]	0.05 to 5
O=C1c2c(nc3ccccc3c2OCc2ccc(F)cc2Cl)-c2cccn21 [Compound 572b, 9-((2-chloro-4-fluorobenzyl)oxy)-10H-pyrrolizino[1,2-b]quinolin-10-one]	0.05 to 5

test system: human dermal fibroblasts CCC-ESF-1; experiment: Anti-fibrosis activity test: inhibition of proliferation of human dermal fibroblasts CCC-ESF-1 (CCK-8); type: cell-based; conditions: Fibroblast; human dermal fibroblasts CCC-ESF-1, CCK-8, 48 hours
Summary of the method: as §1

SMILES	IC50 [mM]
O=C1c2c([nH]c3cc(C(F)(F)F)ccc3c2=O)-c2cccn21 [Compound 536a, 6-(Trifluoromethyl)-9H-pyrrolizino[1,2-b]quinoline-9,10(4H)-dione]	0.05 to 5
O=C1c2c(nc3ccccc3c2OCCCCN2CCOCC2)-c2cccn21 [Compound 664b, 9-(4-morpholinobutoxy)-10H-pyrrolizino[1,2-b]quinolin-10-one]	0.05 to 5
O=C1c2c(nc3ccccc3c2OCCCO)-c2cccn21 [Compound 16b, 9-(3-hydroxypropoxy)-10H-pyrrolizino[1,2-b]quinolin-10-one]	0.05 to 5
O=C(O)COc1c2c(nc3ccccc13)-c1cccn1C2=O [Compound 100b, 2-((10-oxo-10H-pyrrolizino[1,2-b]quinolin-9-yl)oxy)acetic acid]	0.05 to 5
O=C1c2c(nc3ccccc3c2OCc2ccc(F)cc2Cl)-c2cccn21 [Compound 572b, 9-((2-chloro-4-fluorobenzyl)oxy)-10H-pyrrolizino[1,2-b]quinolin-10-one]	0.05 to 5

test system: human embryonic lung fibroblast IMR-90; experiment: Anti-fibrosis activity test: inhibition of proliferation of human embryonic lung fibroblast IMR-90 (CCK-8); type: cell-based; conditions: human embryonic lung fibroblast IMR-90, CCK-8, 48 hours
Summary of the method: as §1

SMILES	IC50 [mM]
O=C1c2c([nH]c3cc(C(F)(F)F)ccc3c2=O)-c2cccn21 [Compound 536a, 6-(Trifluoromethyl)-9H-pyrrolizino[1,2-b]quinoline-9,10(4H)-dione]	0.05 to 5
O=C1c2c(nc3ccccc3c2OCCCCN2CCOCC2)-c2cccn21 [Compound 664b, 9-(4-morpholinobutoxy)-10H-pyrrolizino[1,2-b]quinolin-10-one]	0.05 to 5
O=C1c2c(nc3ccccc3c2OCCCO)-c2cccn21 [Compound 16b, 9-(3-hydroxypropoxy)-10H-pyrrolizino[1,2-b]quinolin-10-one]	0.05 to 5
O=C(O)COc1c2c(nc3ccccc13)-c1cccn1C2=O [Compound 100b, 2-((10-oxo-10H-pyrrolizino[1,2-b]quinolin-9-yl)oxy)acetic acid]	0.05 to 5
O=C1c2c(nc3ccccc3c2OCc2ccc(F)cc2Cl)-c2cccn21 [Compound 572b, 9-((2-chloro-4-fluorobenzyl)oxy)-10H-pyrrolizino[1,2-b]quinolin-10-one]	0.05 to 5

test system: cardiac fibroblast RAT-iCell-C002; experiment: Anti-fibrosis activity test: inhibition of proliferation of cardiac fibroblast RAT-iCell-C002 (CCK-8); type: cell-based; conditions: Cardiac fibroblast, 48 h, cardiac fibroblast RAT-iCell-C002, CCK-8, 48 hours
Summary of the method: as §1

SMILES	IC50 [mM]
O=C1c2c([nH]c3cc(C(F)(F)F)ccc3c2=O)-c2cccn21 [Compound 536a, 6-(Trifluoromethyl)-9H-pyrrolizino[1,2-b]quinoline-9,10(4H)-dione]	0.05 to 5
O=C1c2c(nc3ccccc3c2OCCCCN2CCOCC2)-c2cccn21 [Compound 664b, 9-(4-morpholinobutoxy)-10H-pyrrolizino[1,2-b]quinolin-10-one]	0.05 to 5
O=C1c2c(nc3ccccc3c2OCCCO)-c2cccn21 [Compound 16b, 9-(3-hydroxypropoxy)-10H-pyrrolizino[1,2-b]quinolin-10-one]	0.05 to 5
O=C(O)COc1c2c(nc3ccccc13)-c1cccn1C2=O [Compound 100b, 2-((10-oxo-10H-pyrrolizino[1,2-b]quinolin-9-yl)oxy)acetic acid]	0.05 to 5
O=C1c2c(nc3ccccc3c2OCc2ccc(F)cc2Cl)-c2cccn21 [Compound 572b, 9-((2-chloro-4-fluorobenzyl)oxy)-10H-pyrrolizino[1,2-b]quinolin-10-one]	0.05 to 5

test system: NF-κB; experiment: Immunological activity test: inhibition of NF-κB activity; type: cell-based; conditions: initial concentration of 30 μM; a/b isomers given as first/second symbol; read-out: IC50 (μM), inhibitory activity against NF-κB
Summary of the method: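 Initial screen at 30 μM; parthenolide positive control. IC50s derived from follow-up analysis.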

SMILES	IC50 [µM]
O=C1c2c([nH]c3cc(C(F)(F)F)ccc3c2=O)-c2cccn21 [Compound 536a, 6-(Trifluoromethyl)-9H-pyrrolizino[1,2-b]quinoline-9,10(4H)-dione]	1 to 10
O=C1c2c(nc3ccccc3c2OCCCCN2CCOCC2)-c2cccn21 [Compound 664b, 9-(4-morpholinobutoxy)-10H-pyrrolizino[1,2-b]quinolin-10-one]	1 to 10
O=C1c2c(nc3ccccc3c2OCCCO)-c2cccn21 [Compound 16b, 9-(3-hydroxypropoxy)-10H-pyrrolizino[1,2-b]quinolin-10-one]	1 to 10
O=C(O)COc1c2c(nc3ccccc13)-c1cccn1C2=O [Compound 100b, 2-((10-oxo-10H-pyrrolizino[1,2-b]quinolin-9-yl)oxy)acetic acid]	1 to 10
O=C1c2c(nc3ccccc3c2OCc2ccc(F)cc2Cl)-c2cccn21 [Compound 572b, 9-((2-chloro-4-fluorobenzyl)oxy)-10H-pyrrolizino[1,2-b]quinolin-10-one]	1 to 10

test system: mouse macrophages (RAW264.7); experiment: Lipopolysaccharide-induced NO secretion in macrophages (Griess); type: cell-based; conditions: Mus musculus, RAW264.7, 24 h, RAW264.7, LPS 1 μg/ml, a/b isomers given as first/second symbol, read-out: IC50 (μM), inhibition of lipopolysaccharide-induced NO secretion in macrophages
Summary of the method: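 LPS 1 μg/ml, 24 h, RAW264.7 (DMEM/10% FBS); cpds at varied concs. Supernatant NO by Griess, A548; % inhibition vs blank medium.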

SMILES	IC50 [µM]
O=C1c2c([nH]c3cc(C(F)(F)F)ccc3c2=O)-c2cccn21 [Compound 536a, 6-(Trifluoromethyl)-9H-pyrrolizino[1,2-b]quinoline-9,10(4H)-dione]	1 to 10
O=C1c2c(nc3ccccc3c2OCCCCN2CCOCC2)-c2cccn21 [Compound 664b, 9-(4-morpholinobutoxy)-10H-pyrrolizino[1,2-b]quinolin-10-one]	10 to 50
O=C1c2c(nc3ccccc3c2OCCCO)-c2cccn21 [Compound 16b, 9-(3-hydroxypropoxy)-10H-pyrrolizino[1,2-b]quinolin-10-one]	1 to 10
O=C(O)COc1c2c(nc3ccccc13)-c1cccn1C2=O [Compound 100b, 2-((10-oxo-10H-pyrrolizino[1,2-b]quinolin-9-yl)oxy)acetic acid]	1 to 10
O=C1c2c(nc3ccccc3c2OCc2ccc(F)cc2Cl)-c2cccn21 [Compound 572b, 9-((2-chloro-4-fluorobenzyl)oxy)-10H-pyrrolizino[1,2-b]quinolin-10-one]	1 to 10
